This data set in a line: in vitro. As to conditions: human, hela cells, % viability.

As usually defined, the viability is a read-out of living cells in per cent, often relative to untreated cells.

Take `Cc1cccc(C(=O)Nc2ccccc2C(=O)N2CCN(C)CC2)c1` [CBK268565]: the viability at 28.5 h, 10 µM is 89%.
As to `Cc1ccc(OCc2ccccc2)c(Br)c1` [CBK002833], the viability at 28.5 h, 10 µM stood at 105%.
Consider `O=c1[nH]c2ncc(-c3cccc(Br)c3)nc2n1Cc1ccccn1` [CBK065020], for which the viability at 28.5 h, 10 µM was 101%.
Regarding `CCN(CC(=O)NCc1cccs1)C(=O)CN1CCCC1c1ccc(C)cc1` (centres unmarked) [CBK297761], the viability at 28.5 h, 10 µM is 104%.
Take `Cc1cccnc1Nc1ccc(C2CCCN(C(=O)Cc3ccc4c(c3)CCCO4)C2)nc1` (centres unmarked) [CBK285969]: the viability at 28.5 h, 10 µM turned out to be 89.8%.
In the case of `O=C(Cc1ccc(F)cc1)N1CCCC1c1cccc(Cc2ccc(F)cc2)n1` (centres unmarked) [CBK286234], the viability at 28.5 h, 10 µM was found to be 94.7%.
Regarding `O=C(CNC(=O)c1ccc(OC(F)F)cc1)NCCCn1cccn1` [CBK297789], the viability at 28.5 h, 10 µM worked out at 106%.
Same read-out and setting: the result for `CCOc1ccc(/C=C2\SC(=O)NC2=S)cc1` [CBK027996] reads 90.9%.
For `COc1ccnc(NC(c2cnn(C)c2)[C@H]2C[C@@H](O)C2)n1` (some centres unmarked) [CBK306617], the viability at 28.5 h, 10 µM turned out to be 97.8%.
With `CCOC(=O)CN1C(=O)N2CCCN=C2c2ccc(Cl)cc21` [CBK284401], the viability at 28.5 h, 10 µM was 77.8%.
The same measure, in the same setting: the result for `CSCCN1CCC(C(=O)c2ccc(F)cc2)CC1` [CBK149145] reads 89.4%.
For the molecule `Cc1ccc2oc(C(=O)N(C)Cc3c(C)nn(C)c3C)c(C)c2c1` [CBK281631], the viability at 28.5 h, 10 µM came out at 80.9%.
Take `Fc1ccc(-c2cncc(NCc3ccncc3)n2)cc1Cl` [CBK065343]: the viability at 28.5 h, 10 µM is 94.7%.
Take `COc1cc(NS(=O)(=O)c2ccc(Nc3nc(-c4sc(N)nc4C)cs3)cc2)nc(OC)n1` [CBK262796]: the viability at 28.5 h, 10 µM was determined as 91.2%.
For `COc1ccc(C(=O)NC(=N)NCCc2c[nH]c3ccccc23)cc1` [CBK267840], the viability at 28.5 h, 10 µM turned out to be 111%.
`O=C(COc1ccccc1O)NCCN1CCOCC1` [CBK262243C]: the viability at 28.5 h, 10 µM was determined as 84%.
As for `CC(C)(C)C(=O)NCCn1nc(-c2cccs2)oc1=O` [CBK282344], the viability at 28.5 h, 10 µM stood at 110%.
Same read-out and setting: the result for `COCC(O)CN(C)c1nc(-c2ccncc2)nc2ccccc12` (centres unmarked) [CBK305170] reads 78.7%; that for `O=C(O)c1ccc2c(c1)C(=O)N(c1nc(-c3cccnc3)n[nH]1)C2=O` [CBK268284], 100%; that for `NS(=O)(=O)c1ccc(CCNC(=O)c2ccc(Cl)c([N+](=O)[O-])c2)cc1` [CBK264395], 94.8%.
Regarding `COc1ccc(Cl)cc1N/C=C(/C#N)c1nc(-c2cc3cc([N+](=O)[O-])ccc3oc2=O)cs1` [CBK263014], the viability at 28.5 h, 10 µM worked out at 102%.
Turning to `CCn1nc(C)c(-c2cncn2CCCOc2ccccc2C)c1C` [CBK281761], the viability at 28.5 h, 10 µM came to 99.7%.
The same measure, in the same setting: the result for `CN1CCCN(CC(CC(=O)NCc2ccccc2)C(=O)O)CC1` (centres unmarked) [CBK286791] reads 86.6%; that for `N#Cc1c(N)n(CCN)c2nc3ccccc3nc12` [CBK266706], 87.4%.
Turning to `FC(F)(F)c1ccc(CN2CCCN(c3nccc(OCc4ccc(Cl)c(Cl)c4)n3)CC2)cc1` [CBK083949], the viability at 28.5 h, 10 µM worked out at 94.5%.
Regarding `Cc1cccc(C)c1NC(=O)CN1CCCN(c2cc(OCCN3C(=O)CCC3=O)ncn2)CC1` [CBK083313T], the viability at 28.5 h, 10 µM turned out to be 97.9%.
Consider `O=C(Cc1ccccc1)Nc1ccc2[nH]ncc2c1` [CBK288211], for which the viability at 28.5 h, 10 µM was determined as 104%.
The same measure, in the same setting: the result for `O=C(N1CCOCC1)C12CC3CC(CC(C3)C1)C2` [CBK089368] reads 90.3%.
Take `Nc1ccc(C(=O)Nc2nc3ccccc3s2)cc1` [CBK287608]: the viability at 28.5 h, 10 µM turned out to be 95.9%.
Take `CN(C)CCCN1C(=O)C(O)=C(C(=O)c2cccs2)C1c1cccnc1` (centres unmarked) [CBK264511]: the viability at 28.5 h, 10 µM came to 88.2%.
On to `Cc1ccc(Cn2nc(C(=O)NCc3ccncc3)c3ccccc32)cc1` [CBK047832], for which the viability at 28.5 h, 10 µM (bulk resorufin, single well) is 82.7%.
Consider `O=[N+]([O-])c1ccc(Cl)c(C2N(Cc3ccccc3)CCN2Cc2ccccc2)c1` [CBK261601], for which the viability at 28.5 h, 10 µM is 93.4%.
As to `Cc1csc2nc(CN3CCN(C(=O)c4ccccc4)CC3)cc(=O)n12` [CBK305019], the viability at 28.5 h, 10 µM was 110%.
As to `O=C(CC[C@@H]1CNC(=O)[C@@H]2C[C@H](NC(=O)c3ccco3)CN12)Nc1ccccc1` [CBK289007], the viability at 28.5 h, 10 µM is 91.1%.
In the case of `Cn1ccc(C(=O)NC(Cc2ccsc2)c2ccccn2)cc1=O` (centres unmarked) [CBK285273], the viability at 28.5 h, 10 µM came out at 97.5%.
Consider `CN(C)CCNC(=O)c1cc(-c2cccnc2)nc2c(Cl)cccc12` [CBK267761], for which the viability at 28.5 h, 10 µM worked out at 112%.
Turning to `Cc1ccc(OCC(=O)N2CCN(C(=O)c3cccs3)CC2)c([N+](=O)[O-])n1` [CBK297152], the viability at 28.5 h, 10 µM was 94.4%.
On the same count and under the same terms, the result for `COCC(C)NC(=O)c1cnn2c(C(F)(F)F)cc(-c3cccs3)nc12` (centres unmarked) [CBK307417] reads 104%.
Same read-out and setting: the result for `CC(Oc1ccc(F)cc1)C(=O)N(C)CC1(C)COC1` (centres unmarked) [CBK281702] reads 89.7%; that for `O=C(c1ccc(F)cc1)N1CCCC(c2nccnc2-c2cccc(C(F)(F)F)c2)C1` (centres unmarked) [CBK286142], 98.3%; that for `N#C/C(=C/c1ccc(OCc2cccc(C(=O)O)c2)cc1)c1ccc([N+](=O)[O-])cc1` [CBK266626], 89.6%.
The same measure, in the same setting: for `Cn1cc(CNCC2CCN(CCO)CC2)c(-c2cccnc2)n1` [CBK305153] the value was 91.2%; for `CN(C)c1ncccc1OC1CCN(c2nnc(C(F)(F)F)s2)C1` (centres unmarked) [CBK304789], 97.1%; for `Nc1ncc(-c2ccccc2CO)nc1Nc1ccc2[nH]ccc2c1` [CBK063843], 109%.
As for `C[C@@H]1CC(=O)CCC1NC(=O)c1ccccc1` (some centres unmarked) [CBK017832], the viability at 28.5 h, 10 µM worked out at 88.4%.
`COc1ccccc1C1(O)CCN(CC(O)c2ccc3c(c2)OCCO3)CC1` (centres unmarked) [CBK286482]: the viability at 28.5 h, 10 µM is 90.1%.
Consider `Cc1ccc(S(=O)(=O)N2Cc3ccccc3CC2C(=O)Nc2sc3c(c2C#N)CCCC3)cc1` (centres unmarked) [CBK266313], for which the viability at 28.5 h, 10 µM was 97.9%.
Take `CCN1C(=O)CC(C(=O)O)S/C1=N\c1ccc(OC)cc1` (centres unmarked) [CBK287266]: the viability at 28.5 h, 10 µM is 105%.
Still for that read-out and setting: the result for `COc1cc(C2c3c(-c4cc(C)c(C)cc4O)n[nH]c3C(=O)N2CCO)cc(Br)c1O` (centres unmarked) [CBK269009] reads 112%; that for `COc1cc(NC(=O)c2ccccc2)c(C(=O)O)cc1OC` [CBK227754], 89.9%.
For the molecule `O=C(N/N=C/c1ccccc1)c1ccccn1` [CBK261640], the viability at 28.5 h, 10 µM worked out at 92.8%.
Consider `COCC1CCCN(S(=O)(=O)c2cnc3ccsc3c2)C1` (centres unmarked) [CBK306397], for which the viability at 28.5 h, 10 µM amounted to 66.6%.
With `O=C(Nc1cccc2ccccc12)C1CCCN1S(=O)(=O)c1ccc(F)cc1` (centres unmarked) [CBK138924], the viability at 28.5 h, 10 µM came out at 97.8%.
As to `Cc1cc(N2CCCN3CCCCCC32)nc(N)n1` (centres unmarked) [CBK169746], the viability at 28.5 h, 10 µM worked out at 102%.
On to `CCN(C)C(=O)c1cn2cc(-c3cc(C)oc3C)n(C)c(=O)c2n1` [CBK307494], for which the viability at 28.5 h, 10 µM amounted to 94.9%.
For `COc1ccc(-c2csc(N3CCN(C)CC3)n2)cc1F` [CBK305910], the viability at 28.5 h, 10 µM was 88.7%.
With `O=C1CCCC2=C1C(c1ccccc1Cl)n1nnnc1N2` (centres unmarked) [CBK288151], the viability at 28.5 h, 10 µM turned out to be 93%.
On to `C=CCn1c(SCC(=O)Nc2cc(Cl)ccc2C)nnc1-c1ccccc1O` [CBK266867], for which the viability at 28.5 h, 10 µM was 94.5%.
In the case of `CC(C)(C)NC(=O)NC1CCC2(CC1)CC(=O)c1ccccc1O2` (centres unmarked) [CBK283390], the viability at 28.5 h, 10 µM is 109%.
As to `Cc1ccc(C(=O)C2=C(O)C(=O)N(CCCn3ccnc3)C2c2ccncc2)cc1` (centres unmarked) [CBK264476], the viability at 28.5 h, 10 µM was 106%.
As to `COc1ccc2cc(C(=O)N3Cc4cnn(CCO)c4C3)n(C)c2c1` [CBK306707], the viability at 28.5 h, 10 µM is 94.5%.
In the case of `CC1(C)CC(=O)C(C(=S)Nc2ccc(F)cc2)=C(NCc2ccc3c(c2)OCO3)C1` [CBK264779], the viability at 28.5 h, 10 µM worked out at 97.5%.
As to `CC(C)(C)c1ccc(OCc2nnc(Sc3nc4ccc([N+](=O)[O-])cc4s3)n2-c2ccccc2)cc1` [CBK263366], the viability at 28.5 h, 10 µM was determined as 105%.
Still for that read-out and setting: for `CCN1CCN(Cc2c(C(F)(F)F)[nH]c3ncccc23)CC1` [CBK285362] the value was 95.2%.
Consider `COc1ccc(S(=O)(=O)Nc2nnc(C)s2)cc1` [CBK045543], for which the viability at 28.5 h, 10 µM is 114%.
Still for that read-out and setting: for `O=C(CC1NC(=O)NC1=O)Nc1cccc2ccccc12` (centres unmarked) [CBK267164] the value was 90.3%.
On to `COc1ncc(-c2cc(N3CCN(CCN(C)C)CC3)n3nccc3n2)c(OC)n1` [CBK037033], for which the viability at 28.5 h, 10 µM turned out to be 87.7%.
`CN1CCC(N(C)C(=O)NC(c2ccccc2)c2ccccc2)C1` (centres unmarked) [CBK156000]: the viability at 28.5 h, 10 µM came out at 96.4%.
As for `Cc1cccc(NC(=O)c2cnc3n(c2=O)CCS3)c1` [CBK287375], the viability at 28.5 h, 10 µM is 108%.
The same measure, in the same setting: the result for `O=C(Nc1ccc(Cl)cc1C(=O)O)c1ccccc1Cl` [CBK000171] reads 91.4%; that for `Cc1cccc(-c2ncc(NC(=O)CC3OC(=O)c4ccccc43)nc2-c2ccc(N)cc2)c1` (centres unmarked) [CBK036749], 91.5%; that for `Cc1nc(-c2nnc(SCc3ccc(C(F)(F)F)cc3)o2)cs1` [CBK067715], 95.1%.
`Cc1cc(C)n(-c2ccnc(NCc3cccnc3)n2)n1` [CBK288614]: the viability at 28.5 h, 10 µM worked out at 109%.
On to `CC(C(=O)Nc1ccc(S(N)(=O)=O)cc1)N1Cc2ccccc2C1=O` (centres unmarked) [CBK307607], for which the viability at 28.5 h, 10 µM was 82.8%.
`N#C/C(=N/Nc1ccc(Br)cc1)C1=NC(=O)CS1` [CBK018747]: the viability at 28.5 h, 10 µM came out at 96%.
Regarding `O=C(O)CNS(=O)(=O)c1cc(Cl)c(Cl)cc1Cl` [CBK266136], the viability at 28.5 h, 10 µM was 96.6%.
Turning to `CC(C)C(c1nnnn1Cc1ccccc1)N1CCOCC1` (centres unmarked) [CBK028054], the viability at 28.5 h, 10 µM was 117%.
For `Cc1nccn1CCC1CCN(C(=O)c2cnn(C)c2)CC1` [CBK281951], the viability at 28.5 h, 10 µM stood at 89.3%.
Same read-out and setting: the result for `Cc1cc(NC(=O)C2CCCC2)nc2c1c(=O)oc1ccccc12` [CBK287438] reads 93.2%; that for `O=C(Nc1ccc(Cl)cc1)N1CCCC(CO)C1` (centres unmarked) [CBK156047], 112%.

The values are drawn from article PMC12040169 (PLOS Biology, 2025).
